Measured values: ChEMBL document CHEMBL1140140, “4-[3-(4-cyclopropanecarbonylpiperazine-1-carbonyl)-4-fluorobenzyl]-2H-phthalazin-1-one: a novel bioavailable inhibitor of poly(ADP-ribose) polymerase-1” (J Med Chem, 2008)
In brackets after ≈: the same amount, converted by molar mass. Activity calls are given as the source filed them. The calls are words filed in the database; no cut-off is given here.

Tests used:
HeLa = assay: Potentiation factor, ratio of IC50 for methyl methanesulfonate to IC50 for methyl methanesulfonate with 200 nM drug for inhibition of human HeLa B cells
[1] = target: Poly [ADP-ribose] polymerase 1 (Homo sapiens, UniProt P09874)
Poly [ADP-ribose] polymerase 1, sequence (P09874 whole entry): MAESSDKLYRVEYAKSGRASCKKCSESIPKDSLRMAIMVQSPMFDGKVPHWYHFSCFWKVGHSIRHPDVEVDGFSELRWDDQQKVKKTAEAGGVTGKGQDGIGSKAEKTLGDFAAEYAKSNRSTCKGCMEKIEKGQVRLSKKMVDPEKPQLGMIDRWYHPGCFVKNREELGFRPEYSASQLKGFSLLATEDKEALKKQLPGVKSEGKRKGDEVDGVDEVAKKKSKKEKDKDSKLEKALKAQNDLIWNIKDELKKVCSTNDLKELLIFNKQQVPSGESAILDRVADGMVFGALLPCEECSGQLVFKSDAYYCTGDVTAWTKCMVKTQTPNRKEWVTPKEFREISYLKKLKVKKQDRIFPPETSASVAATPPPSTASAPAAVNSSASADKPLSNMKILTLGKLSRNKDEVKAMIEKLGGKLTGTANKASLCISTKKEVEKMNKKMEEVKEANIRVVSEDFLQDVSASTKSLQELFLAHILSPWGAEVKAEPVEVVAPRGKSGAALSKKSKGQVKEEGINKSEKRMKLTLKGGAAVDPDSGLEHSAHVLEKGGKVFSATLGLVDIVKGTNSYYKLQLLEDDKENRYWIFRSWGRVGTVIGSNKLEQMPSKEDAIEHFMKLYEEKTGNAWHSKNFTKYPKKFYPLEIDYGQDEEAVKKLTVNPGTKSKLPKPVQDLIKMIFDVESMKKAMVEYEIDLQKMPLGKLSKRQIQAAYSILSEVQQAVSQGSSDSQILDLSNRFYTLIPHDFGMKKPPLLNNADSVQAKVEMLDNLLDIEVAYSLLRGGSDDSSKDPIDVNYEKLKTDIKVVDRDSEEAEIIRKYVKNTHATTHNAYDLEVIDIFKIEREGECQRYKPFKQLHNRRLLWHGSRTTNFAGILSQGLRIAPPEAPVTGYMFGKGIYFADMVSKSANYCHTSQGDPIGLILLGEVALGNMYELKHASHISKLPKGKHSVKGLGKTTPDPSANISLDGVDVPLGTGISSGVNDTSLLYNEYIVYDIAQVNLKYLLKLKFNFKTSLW

Mus musculus = assay: Toxicity in human SW620 cells xenografted mouse assessed as maximum mean body weight loss after 3 days; type: organism-based, SW-620; conditions: in vivo, 72 h
SW-620 [2] = assay: Antitumor activity in human SW620 cells xenografted mouse assessed as days to double the relative tumor volume at 50 mg/kg, po once daily for 5 consecutive days; type: functional
[3] = Plasma concentration in mouse at 10 mg/kg, po after 30 mins; type: ADME, organism-based; parameters: dose 10 mg/kg, route oral
[4] = Plasma concentration in mouse at 10 mg/kg, po after 60 mins; type: ADME, organism-based; parameters: dose 10 mg/kg, route oral
[5] = Solubility of compound in 0.1 M phosphate buffer after 24 hrs by HPLC-UV method; type: physicochemical
[6] = Half life in rat at 15 mg/kg, iv and po; type: ADME, organism-based; parameters: dose 15 mg/kg, route oral; conditions: in vivo
[7] = Oral bioavailability in rat at 15 mg/kg, po; type: ADME, organism-based; conditions: in vivo
Rattus norvegicus [8] = assay: Volume of distribution in rat at 15 mg/kg, iv and po; type: ADME, organism-based; parameters: dose 15 mg/kg, route oral; conditions: in vivo
Rattus norvegicus [9] = assay: AUC (0 to infinity) in rat at 15 mg/kg, iv and po; type: ADME, organism-based, Plasma; parameters: dose 15 mg/kg, route oral; conditions: in vivo
[10] = Clearance in dog at 2.5 mg/kg, iv and 10 mg/kg, po; type: ADME, organism-based, Canis lupus familiaris; conditions: in vivo
Homo sapiens = species on record: Homo sapiens; assay: Cytotoxicity against BRCA1-deficient human […] cells upto 4 uM after 7 to 14 days by clonogenic assay; type: functional, cell-based
[11] = Half life in dog at 2.5 mg/kg, iv and 10 mg/kg, po; type: ADME, organism-based, Canis lupus familiaris; conditions: in vivo
Canis familiaris = assay: AUC (0 to infinity) in dog at 2.5 mg/kg, iv and 10 mg/kg, po; type: ADME, organism-based, Canis lupus familiaris, Plasma; conditions: in vivo
[12] = Volume of distribution in dog at 2.5 mg/kg, iv and 10 mg/kg, po; type: ADME, organism-based, Canis lupus familiaris; conditions: in vivo
HCC1937 = assay: Cytotoxicity against BRCA1-deficient human HCC1937 cells upto 4 uM after 7 to 14 days by clonogenic assay; type: functional, cell-based
SW-620 [13] = assay: Potentiation of methyl methanesulfonate-induced growth inhibition of human SW620 cells after 4 days by sulforhodamine B assay; type: functional, cell-based
[14] = Oral bioavailability in dog at 10 mg/kg, po; type: ADME, organism-based, Canis lupus familiaris; conditions: in vivo

| IC50 [1] | SMILES | PF50 (HeLa) | also measured |
| --- | --- | --- | --- |
| 5 nM | CCCCN1CCN(C(=O)c2cc(Cc3n[nH]c(=O)c4ccccc34)ccc2F)CC1 | 6.4 |  |
|  | Cn1nnc2c(C(N)=O)ncn2c1=O [TEMOZOLOMIDE] |  | Activity (Mus musculus): 6%; Time (SW-620 [2]): 44 days |
| 6 nM | CC(=O)N1CCN(C(=O)c2cc(Cc3n[nH]c(=O)c4ccccc34)ccc2F)CC1 | 7.97 |  |
| 6 nM | CCN1CCN(C(=O)c2cc(Cc3n[nH]c(=O)c4ccccc34)ccc2F)CC1 | 7.7 |  |
|  | O=C(c1cc(Cc2n[nH]c(=O)c3ccccc23)ccc1F)N1CCCN(CCO)CC1 | 18 |  |
| 3 nM | O=C(c1cc(Cc2n[nH]c(=O)c3ccccc23)ccc1F)N1CCN(c2ncccn2)CC1 | >40 |  |
| 12 nM | CCS(=O)(=O)N1CCN(C(=O)c2cccc(Cc3n[nH]c(=O)c4ccccc34)c2)CC1 | 4.6 |  |
| 12 nM | CC(=O)N1CCCN(C(=O)c2cc(Cc3n[nH]c(=O)c4ccccc34)ccc2F)CC1 | 3.7 |  |
| 11 nM | O=C(c1ccccc1)N1CCN(C(=O)c2cccc(Cc3n[nH]c(=O)c4ccccc34)c2)CC1 | 7.2 |  |
| 2 nM | O=C(c1cccc(Cc2n[nH]c(=O)c3ccccc23)c1)N1CCN(c2ncccn2)CC1 | >40 | solubility at 24 h [5]: 1 µg/mL (≈ 2.34 µM); concentration at 0.5 h [3]: 300 ng/mL; concentration at 1 h [4]: 140 ng/mL |
|  | O=C(c1cc(Cc2n[nH]c(=O)c3ccccc23)ccc1F)N1CCCNCC1 | 12.6 |  |
|  | O=C(c1cc(Cc2n[nH]c(=O)c3ccccc23)ccc1F)N1CCN(c2ccccc2)CC1 | 5.2 | concentration at 0.5 h [3]: 700 ng/mL; concentration at 1 h [4]: 310 ng/mL |
| 18 nM | O=C(c1cccc(Cc2n[nH]c(=O)c3ccccc23)c1)N1CCCN(CCO)CC1 | 5.4 |  |
| 88 nM | CN1CCN(C(=O)c2cccc(Cc3n[nH]c(=O)c4ccccc34)c2)CC1 | 1.02 |  |
| 39 nM | O=C(c1cccc(Cc2n[nH]c(=O)c3ccccc23)c1)N1CCN(CCO)CC1 | 1.8 |  |
| 6 nM | CCCN1CCN(C(=O)c2cc(Cc3n[nH]c(=O)c4ccccc34)ccc2F)CC1 | 7.3 |  |

| IC50 [1] | SMILES | PF50 (HeLa) | also measured |
| --- | --- | --- | --- |
|  | O=C(c1cc(Cc2n[nH]c(=O)c3ccccc23)ccc1F)N1CCN(CC2CC2)CC1 | 6.5 |  |
| 51 nM | O=C(c1cccc(Cc2n[nH]c(=O)c3ccccc23)c1)N1CCN(c2ccccc2)CC1 |  |  |
|  | O=C(c1cccc(Cc2n[nH]c(=O)c3ccccc23)c1)N1CCNCC1 | 3.7 |  |
| 23 nM | CCS(=O)(=O)N1CCCN(C(=O)c2cccc(Cc3n[nH]c(=O)c4ccccc34)c2)CC1 | 1.4 |  |
| 5 nM | O=C(c1cc(Cc2n[nH]c(=O)c3ccccc23)ccc1F)N1CCNCC1 | 8.6 |  |
| 10 nM | O=C(c1cccc(Cc2n[nH]c(=O)c3ccccc23)c1)N1CCN(c2ccccn2)CC1 | 24.3 |  |
| 20 nM | O=C(c1cccc(Cc2n[nH]c(=O)c3ccccc23)c1)N1CCCN(C(=O)N2CCOCC2)CC1 | 1.4 |  |
|  | O=C(c1cc(Cc2n[nH]c(=O)c3ccccc23)ccc1F)N1CCN(C(=O)C2CCCO2)CC1 (configuration not stated) | 39.4 | solubility at 24 h [5]: 980 µg/mL (≈ 2110 µM) |
| 8 nM | O=C(c1cccc(Cc2n[nH]c(=O)c3ccccc23)c1)N1CCN(C(=O)N2CCOCC2)CC1 | 2.3 |  |
| 5 nM | CCC(=O)N1CCN(C(=O)c2cc(Cc3n[nH]c(=O)c4ccccc34)ccc2F)CC1 | 24.4 | half-life [6]: 55 min; bioavailability [7]: 40%; concentration at 0.5 h [3]: 670 ng/mL; concentration at 1 h [4]: 300 ng/mL; Vd (Rattus norvegicus [8]): 0.91 L/kg; AUC (Rattus norvegicus [9]): 423 µg/min/mL |
| 13 nM | CN1CCN(C(=O)c2cc(Cc3n[nH]c(=O)c4ccccc34)ccc2F)CC1 | 2.5 |  |
| 2 nM | O=C(c1cc(Cc2n[nH]c(=O)c3ccccc23)ccc1F)N1CCN(C(=O)C2CCCC2)CC1 | 11.8 |  |
| 8 nM | CCS(=O)(=O)N1CCN(C(=O)c2cc(Cc3n[nH]c(=O)c4ccccc34)ccc2F)CC1 | 4.9 |  |
|  | O=C(c1cc(Cc2n[nH]c(=O)c3ccccc23)ccc1F)N1CCN(C(=O)N2CCOCC2)CC1 | 8.4 |  |
| 12 nM | O=C(c1cc(Cc2n[nH]c(=O)c3ccccc23)ccc1F)N1CCN(CCO)CC1 | 3.3 |  |
|  | O=C(c1cc(Cc2n[nH]c(=O)c3ccccc23)ccc1F)N1CCN(C(=O)C2CC2)CC1 [OLAPARIB] | 25.8 | half-life [6]: 53 min; bioavailability [7]: 100%; clearance [10]: 5.4 mL/min/kg; Activity (Homo sapiens): Active; concentration at 0.5 h [3]: 230 ng/mL; half-life [11]: 170 min; concentration at 1 h [4]: 590 ng/mL; AUC (Canis familiaris): 511 µg/min/mL; Vd [12]: 1.3 L/kg; Vd (Rattus norvegicus [8]): 1.18 L/kg; Activity (HCC1937): Active; Activity (SW-620 [13]): Dose-dependent effect; AUC (Rattus norvegicus [9]): 304 µg/min/mL; bioavailability [14]: 100% |

| SMILES | IC50 [1] | PF50 (HeLa) | also measured |
| --- | --- | --- | --- |
| O=C(c1cc(Cc2n[nH]c(=O)c3ccccc23)ccc1F)N1CCN(C(=O)C2CCOC2)CC1 (configuration not stated) | 2 nM | 29.8 | concentration at 0.5 h [3]: 160 ng/mL; concentration at 1 h [4]: 150 ng/mL |
| O=C(c1cc(Cc2n[nH]c(=O)c3ccccc23)ccc1F)N1CCN(c2ccccn2)CC1 | 2 nM | >40 |  |
| O=C(c1cc(Cc2n[nH]c(=O)c3ccccc23)ccc1F)N1CCN(C(=O)C2CCCCC2)CC1 | 15 nM | 11.1 |  |
| O=C(c1cc(Cc2n[nH]c(=O)c3ccccc23)ccc1F)N1CCCN(C(=O)N2CCOCC2)CC1 | 8 nM | 2.5 |  |
| O=C(c1cc(Cc2n[nH]c(=O)c3ccccc23)ccc1F)N1CCCN(C(=O)C2CC2)CC1 | 12 nM | 4.2 |  |
| O=C(c1ccccc1)N1CCN(C(=O)c2cc(Cc3n[nH]c(=O)c4ccccc34)ccc2F)CC1 | 6 nM | 8.2 |  |
| O=C(c1cccc(Cc2n[nH]c(=O)c3ccccc23)c1)N1CCCN(Cc2ccccc2)CC1 | 18 nM | 2.2 |  |
